Data published in patent publication US20240415878A1, “Compositions and Methods for Modulating Mitochondrial Function” (Board of Regents, The University of Texas System, priority 2021, published 2024).

How the values were obtained:
[1] = tested on: mitochondrial Mg^2+ uptake; assay: Metabolite screen for ER Mg2+ depletion and mitochondrial Mg2+ uptake, Mag-Green confocal imaging of hepatocytes; assay type: cell-based, murine
Excerpt: Targeted Metabolite Screen Identifies Lactate as activator agonist for Mitochondrial Mg^2+ Uptake. To search for agonists that promote mitochondrial Mg^2+ ([Mg^2+]m) uptake, the inventors developed a cell-based confocal fluorescence imaging. As an initial feature, the inventors tested whether GPCR agonist-induced second messengers promote Mg^2+ dynamics. To discriminate intracellular Ca^2+ and Mg^2+ dynamics, MEFs were loaded with cell permeant Ca^2+ indicator, Fluo-4-AM or Mg^2+ indicator Mag green-AM followed by GPCR agonist, thrombin stimulation. […] It is established that intracellular Ca^2+ dynamics could be monitored using a wide range of fluorescent dyes or genetically encoded Ca^2+ indicators. Conversely, Mg^2+ sensitive indicators are very limited due to either lack of agonists or robust dynamic nature. To identify the agonist, primary murine hepatocytes were loaded with [Mg^2+]i indicator, cell permeant Mag Green-AM (5 μM). Subsequently, dye loaded hepatocytes were stimulated with major cellular metabolites and mitochondrial oxidative phosphorylation (OXPHOS) inhibitors following baseline recording. […] As depicted in FIG. 1B, the reciprocal mobilization of free Mg^2+ ion from ER to mitochondria was observed upon stimulation of Lactate (5 mM) in a temporal fashion. To confirm that lactate-induced Mag-Green signals are indeed measured from mitochondrial compartment, hepatocytes were simultaneously loaded with mitochondrial marker Mito-tracker Red and Mag-Green-AM (FIG. 1C-1F). […] Conversely, sodium lactate or lactic acid (5 mM) triggered a rapid depletion of ER signal with concomitant accumulation nucleus followed by mitochondrial elevation of Mag Green signal with a lag time of ˜25 s (FIG. 1D). Besides nucleotides such as ATP, citrate is also known to chelate free Mg^2+. Since ATP is cell impermeable, citrate (5 mM) was applied and intracellular Mg^2+ mobilization monitored. […] To exclude the possibility that acidic pH of medium by lactate could alter membrane polarization, the pH was normalized. Additionally, the inventors also tested whether both sodium lactate as well as lactic acid induce mitochondrial Mg^2+ uptake. Consistent with sodium form of lactate, lactic acid also elicited a rapid ER depletion followed by mitochondrial Mg^2+ influx indicating a lactate role as an activator of Mg^2+ dynamics. Thus, natural metabolite, lactate rapidly mobilizes ER Mg^2+ which led to cytosolic elevation resulting in activation mitochondrial Mg^2+ uptake.
Mitochondrial Mg^2+ Transporter is Temperature Sensitive. […] To assess optimal concentration of lactate required to trigger Mg^2+ depletion from ER compartment and mitochondrial Mg^2+ uptake, both ER-depletion and mitochondrial Mg^2+ uptake was measured in hepatocytes at 37° C. […] However, a consistent stronger response was perceived at 5 mM lactate stimulation (FIG. 2A and 2B). During these studies depletion of ER Mg^2+ was noticed at 37° C. and room temperature (25° C.) upon 5 mM lactate stimulation (FIG. 2C). Remarkably, mitochondrial Mg^2+ uptake was higher at 37° C. and had no effect at 25° C. showing a temperature sensitivity (FIG. 2D). Based on this experimental evidence, a wide range of temperatures were tested. To determine the temperature responsiveness, primary hepatocytes were kept between 25° C.-40° C. and cells were stimulated with 5 mM lactate. […] (FIG. 2F). Intriguingly, the lactate response was not seen at 25° C. or 30° C. (FIG. 2F).
ER-Dependent Efflux of Free Mg^2+ Promotes Mitochondrial Mg^2+ Uptake. […] Since extracellular delivery of lactate rapidly induces ER-depletion and subsequent mitochondrial uptake, it was asked whether rapid influx of lactate regulates this mechanism. Most mammalian cells utilize monocarboxylate transporters (MCT1-4) for plasma membrane lactate entry. To test this, primary hepatocytes were treated with MCT1 or MCT1/2 inhibitors for 60 minutes. […]

[2] = tested on: HIF-1α; details: for HIF-1α stabilization: higher concentrations causing increased stabilization
Excerpt: HIF-1α is stabilized in Mrs2−/− mice. To examine the intrinsic role of Mrs2, Mrs2^−/− mice were challenged to LPS-induced inflammatory response. It was noticed that there was a barely detectable HIF-1α stabilization in control but a significant HIF-1α protein accumulation following LPS stimulation in Mrs2^−/− hepatocytes (Daw et al., 2020). […] It was envisioned that loss of Mrs2 in hepatocyte mitochondria might control metabolite fluxes that regulates HIF-1α stability under normoxic conditions. HIF-1α is the most commonly studied transcription factor that responds to oxygen tension and its stabilization controls numerous metabolic cascades, including glycolysis and oxidative phosphorylation (Kaelin and Ratcliffe, 2008; Lum et al., 2007; Semenza, 2013). A targeted metabolite screen was conducted to identify whether these metabolites potentially altered in Mrs2^−/− control HIF-1α stabilization. WT hepatocytes were treated with the PHD inhibitor FG-4952 for 6 hours in the presence or absence of metabolites (Buckley et al., 2012). […] Next it was explored whether citric acid mediated HIF-1α destabilization is a hydroxylation dependent mechanism by reconstitution of hydroxylation-dead mutant HIF-1α in COS-7 cells (Yan et al., 2007). […] Next tested the potency of citric acid and sodium citrate was tested. Hepatocytes isolated from WT or Mrs2^−/− mice were treated for 6 hours. HIF-1α stabilization was less affected by di- or tri-sodium citrate than by citric acid (FIG. 9G). […] The citric acid-mediated HIF-1α destabilization was intact in multiple chemical modalities (FIG. 9H) and the intracellular chelation of Mg^2+ ions suppressed FG-4952-induced HIF-1α stabilization (FIG. 9I). […] Furthermore, COS-7 cells were more sensitive to the HIF-1α stabilizing effect compared to hepatocytes. […] Next HIF-1α abundance was tested in liver tissues harvested from dietary cohorts. HIF-1α protein expression/stabilization was prominent in both Mrs2^−/− and Mrs2^−/− WD, whereas HIF-1α protein was nearly completely absent in WT WD (FIG. 9M). This supports the elevation of HIF-1α protein level as a key mechanism driving transcription changes in Mrs2^−/− WD livers.
Immunoblotting. Crushed tissues were homogenized in lysis buffer (ThermoFisher) on ice for one minute (20-30 strokes) using an automatic Dounce homogenizer set to 2000 RPM. Whole cell lysate was prepared in lysis buffer (Abcam) using 3 sets of 3-second sonication (power level 3) intervals on ice. Protein concentration was estimated using Pierce BCA assay kit and samples were prepared and heated for 90° C. for 5 minutes. Equal amounts of protein were loaded and separated on 4%-12% Bis-Tris polyacrylamide gel (Thermo Fisher Scientific), transferred to a PVDF membrane, blocked for 1-2 h using 5% fat free skim milk, washed and finally, probed with corresponding antibodies as specified below. Antibodies were from Cell Signaling Technology (HIF-1α and Hydroxy HIF-1α dilution 1:3000, MCU dilution 1.5000, MICU1 dilution 1:3000), Abcam Abcam (CPT-1a, CPT-2, OXPHOS cocktail dilution 1:3000), ZYMED Laboratories (β-actin; dilution 1:1,000), and Amersham (secondary antibodies conjugated with peroxidase). Development was done using X-ray film using a series of timed exposures and Image J was used for densitometric analysis on scanned film images.

[3] = tested on: MEFs; assay: Intracellular Ca2+ and Mg2+ dynamics in MEFs (Fluo-4-AM, Mag green-AM); assay type: cell-based
Excerpt: Targeted Metabolite Screen Identifies Lactate as activator agonist for Mitochondrial Mg^2+ Uptake. To search for agonists that promote mitochondrial Mg^2+ ([Mg^2+]m) uptake, the inventors developed a cell-based confocal fluorescence imaging. As an initial feature, the inventors tested whether GPCR agonist-induced second messengers promote Mg^2+ dynamics. To discriminate intracellular Ca^2+ and Mg^2+ dynamics, MEFs were loaded with cell permeant Ca^2+ indicator, Fluo-4-AM or Mg^2+ indicator Mag green-AM followed by GPCR agonist, thrombin stimulation. […] It is established that intracellular Ca^2+ dynamics could be monitored using a wide range of fluorescent dyes or genetically encoded Ca^2+ indicators. Conversely, Mg^2+ sensitive indicators are very limited due to either lack of agonists or robust dynamic nature. To identify the agonist, primary murine hepatocytes were loaded with [Mg^2+]i indicator, cell permeant Mag Green-AM (5 μM). […] To confirm that lactate-induced Mag-Green signals are indeed measured from mitochondrial compartment, hepatocytes were simultaneously loaded with mitochondrial marker Mito-tracker Red and Mag-Green-AM (FIG. 1C-1F). […] Since ATP is cell impermeable, citrate (5 mM) was applied and intracellular Mg^2+ mobilization monitored. […]

[4] = target: T1, human MRS2 (Homo sapiens, UniProt Q9HD23); assay: Dynamic light scattering of purified full-length MRS2 assembly; assay type: binding; details: 5 mM
T1 construct: 6xHis (N, cleaved yes); made in house; host or cells: BL21 (DE3) codon+ Escherichia coli, pET-28a
T1 sequence (Q9HD23 58-443): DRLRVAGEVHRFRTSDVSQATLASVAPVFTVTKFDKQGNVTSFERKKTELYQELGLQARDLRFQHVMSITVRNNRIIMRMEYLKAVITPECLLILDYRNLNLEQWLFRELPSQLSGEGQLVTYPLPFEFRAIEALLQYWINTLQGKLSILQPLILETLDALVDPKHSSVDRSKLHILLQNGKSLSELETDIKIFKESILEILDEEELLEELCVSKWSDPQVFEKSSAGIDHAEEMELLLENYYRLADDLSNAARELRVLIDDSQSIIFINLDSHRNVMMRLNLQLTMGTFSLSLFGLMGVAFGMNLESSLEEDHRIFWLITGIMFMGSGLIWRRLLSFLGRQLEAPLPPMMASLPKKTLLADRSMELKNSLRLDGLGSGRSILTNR
Description: Next, CPACC was assessed to determine if it directly affects the assembly of purified human MRS2 using dynamic light scattering (DLS). DLS has been used to determine whether the complex stability of proteins/channels is altered by molecular chaperones or drugs (Kitamura et al., 2006). Because of the high sensitivity of DLS to changes in complex sizes, full-length Mrs2 assembly was evaluated in the presence Ca^2+ (5 mM), Mg^2+ (5 mM), Co^2+ (5 mM) or the Mrs2 blocker CPACC (0.5 mM) (FIG. 10K, FIG. 10L, FIG. 10M, FIG. 10N, FIG. 10O). […] A concentration-response assessment confirmed robust decreases in hydrodynamic radii at all CPACC concentrations tested and as low as 10 μM (FIG. 10O).
MRS2 cloning, expression, and purification. The full length human MRS2 (NCBI accession NP_065713.1), identified as MRS258-443 (i.e. residues 58-443) and excluding the mitochondrial targeting sequence, was cloned into pET-28a using Ndel and Xhol restriction sites. […]
Dynamic light scattering (DIS). […] The sample was equilibrated for 5 min at 20° C. before 10 autocorrelation function acquisitions of 5 s each were recorded and averaged. […] The dependence of hydrodynamic size on CPACC concentration was determined using ≈0.5 mg/mL protein supplemented with 0.01 mM, 0.05 mM, 0.1 mM, 0.5 mM or 0.75 mM CPACC, using a similar experimental setup as described above and cumulants analysis.

## CC(O)C(=O)O (centres unmarked) [lactic acid]
[1]; 5 mM
  lag time to mitochondrial elevation of Mag Green signal: ~25 s

## Cc1nc(C(=O)NCC(=O)O)c(O)c2ccc(Oc3ccccc3)cc12 [FG-4592, reference compound]
[2]; hepatocytes
  HIF-1α stabilization: promoted HIF-α stabilization

## [Cl][Co][Cl] [CoCl2, cobalt chloride, reference compound]
[2]; hepatocytes
  HIF-1α stabilization: promoted HIF-α stabilization

## thrombin
[3]; Fluo-4-AM
  cytosolic Ca^2+ mobilization: rapidly elicited cytosolic Ca^2+ mobilization
[3]; Mag green-AM
  intracellular Mg^2+ dynamics: absent

## CC(O)C(=O)[O-].[Na+] (centres unmarked) [sodium lactate]
[1]; 5 mM
  lag time to mitochondrial elevation of Mag Green signal: ~25 s

## CC(O)C(=O)O (centres unmarked) [lactate]
[1]; 5 mM, 25° C. or 30° C.
  lactate-induced mitochondrial Mg^2+ uptake: not seen
[1]; 5 mM, 25° C.-40° C.
  Lactate-induced ER Mg^2+ depletion: seen at all the indicated temperature range
[1]; 5 mM, 34° C. and 40° C.
  lactate-induced mitochondrial Mg^2+ uptake: sub-optimal
[1]; 5 mM, 37° C.
  lactate-induced mitochondrial Mg^2+ uptake: maximal
[1]; hepatocytes, 37° C.
  concentration that promotes ER depletion and partial uptake of Mg^2+ into mitochondria: ≥ 2 mM
[1]; metabolite screen, primary murine hepatocytes
  ER Mag-Green signal depletion and mitochondrial Mg^2+ uptake: rapid and robust depletion of ER Mag-Green signal followed by a subsequent elevation in the mitochondria

## O=C(O)CC(O)(CC(=O)O)C(=O)O [citrate]
[1]; 5 mM
  effect on mitochondrial and ER Mg^2+ signals: partly chelated both mitochondrial and ER Mg^2+ signals

## N#C/C(=C\c1cn(-c2ccccc2)c2ccccc12)C(=O)O [UK5099, reference compound]
[2]; hepatocytes
  effect of blockade of mitochondrial pyruvate entry on HIF-1α stabilization: did not prevent HIF-1α stabilization

## [Cl-].[Cl-].[Mg+2] [Mg^2+]
[2]; 10 mM, normoxia
  HIF-1α stabilization at high levels: sufficient to promote low levels of HIF-1α stabilization

## COC(=O)CNC(=O)C(=O)OC [DMOG, reference compound]
[2]; hepatocytes
  HIF-1α stabilization: promoted HIF-α stabilization

## [Cl-].[Cl-].[Co+2] [Co^2+, reference compound]
[4]
  full-length MRS2 complex sizes (DLS): potently decreased
